The results in this text go back to patent US5281710A, “Dynemicin analogs: synthesis, methods of preparation and use” (The Scripps Research Institute, priority 1992, dated 1994).

Data set [1] deals with Ovcar-4 ovarian carcinoma cells. Briefly: Sulforhodamine B cytotoxicity, Ovcar-4. The following applies: Homo sapiens. In kind it is cell-based. Here is the method: (§1) In addition to the screening already discussed, several of the before-described compounds and chimeras were screened against several or all of a panel of ten to twenty-five cancerous cell lines as target cells and seven "normal" cell preparations. This screening utilized a sulforhodamine B cytotoxidity assay as discussed below.
(§2) IC50 values; i.e., the concentration of Compound required to kill one-half of the treated cells, were then calculated.

Data set [2] can be described thus: Water solubility. In kind it is physicochemical.
The test system of data set [3] is L-1210 mouse lymphoma cells. Briefly: Sulforhodamine B cytotoxicity, L-1210. In kind it is cell-based. The conditions noted are these: L1210. Here is the method: as §1, §2
In data set [4] the test system is MOLT-4 (Leukemia) cell line. Briefly: cells. In kind it is cell-based. The essentials:
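Compounds and chimeras were screened against a panel of ten to twenty-five cancer cell lines plus seven "normal" cell preparations. Cytotoxicity was measured by sulforhodamine B staining, and IC50 was taken as the compound concentration required to kill one-half of the treated cells.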

Data set [5] deals with DNA in Molt-4 leukemia cells. In words: DNA strand breakage in Molt-4 cells (ethidium bromide fluorimetry). In kind it is cell-based. Here is the method:
In another study, Molt-4 leukemia cells were treated with ethidium bromide, which led to uptake by DNA through intercalcation and consequent fluorescence. Exposure of those cells to Compound 153 (10 μM at 10^7 cells/ml) led to rapid DNA strand breakage as determined by fluorimetry, resulting in 95 percent destruction after four hours at 37° C. […] These observations implicate DNA strand cleavage as the direct cause of cell destruction in these studies.

The subject of data set [6] is M-14 melanoma cells. In words: Sulforhodamine B cytotoxicity, M-14. In kind it is cell-based. The conditions noted are these: Homo sapiens, M14. Here is the method:
as §1, §2
UCLA M-14 Dr. R. Reisfeld of The Scripps Research

Data set [7] can be described thus: Sulforhodamine B cytotoxicity, HMEC. In kind it is cell-based, human. The following applies: human, read-out: cell viability. Here is the method:
as §1, §2
HMEC Human mammary epithelial cells

Data set [8] relates to U-251 MG glioma cells. In words: Sulforhodamine B cytotoxicity, U-251. In kind it is cell-based. The conditions noted are these: Homo sapiens. Here is the method:
as §1, §2

On to `O=C(OCCS(=O)(=O)c1ccccc1)N1c2ccc(OCCO)cc2C23OC24CCCC3C#C/C=C\C#CC14` (centres unmarked) [Compound 153], for which the IC50 in data set [1] was 780 nM; in data set [3] it was 1.3 nM; in data set [6], 1600 nM; in data set [8] it was 390 nM. Further, the water solubility result in data set [2] is listed as “increased solubility of Compound 153 in water compared to the other enediyne compounds”. This molecule also came in with a viability at 0.01 µM in data set [4] (Homo sapiens, 72 h, 10^-8 M, Molt-4 tumor cells) of 20%. In addition, the “relative potency (qualitative)” value in data set [4] (Molt-4) is “highest potency amongst all of the agents assayed against the Molt-4 leukemia cell line”. Further, the “DNA strand breakage (destruction)” value in data set [5] (10 μM at 10^7 cells/ml, four hours at 37° C.) was found to be 95%. For the same molecule, in data set [5] (10 μM, Molt-4 cells), the “delay of cell death relative to DNA strand breakage” value is on record as “two”. Further, the viability at 72 h in data set [7] (10^-6 to 10^-7 M) was 100%. For the same molecule, in data set [7] (10^-8 M), the viability at 72 h, 0.01 µM amounted to 100%.

Usually IC50 stands for the concentration at which inhibition is half-maximal. The viability is a read-out of living cells in per cent, often relative to untreated cells.
